This note sets out measurements from Sander's compilation of Henry's law constants (doi:10.1021/es00047a026).

This data set in a line: Henry solubility constant Hcp at 298.15 K (mol/(m3 Pa)). The following applies: reference: Hoff et al. (1993).

With `ClC=C(Cl)Cl` [trichloroethene], the “Henry solubility constant Hcp” value came to 0.0011.

As to `Cc1ccccc1` [methylbenzene], the “Henry solubility constant Hcp” value came to 0.0013.

`ClC(Cl)(Cl)Cl` [tetrachloromethane]: the “Henry solubility constant Hcp” value amounted to 0.00036.

Regarding `ClC(Cl)=C(Cl)Cl` [tetrachloroethene], the “Henry solubility constant Hcp” value was found to be 0.00063.

As to `ClCCl` [dichloromethane], the “Henry solubility constant Hcp” value stood at 0.0041.

`CC(Cl)(Cl)Cl` [1,1,1-trichloroethane]: the “Henry solubility constant Hcp” value is 0.00053.

On to `c1ccccc1` [benzene], for which the “Henry solubility constant Hcp” value is 0.0017.

`CC(C)=O` [propanone]: the “Henry solubility constant Hcp” value is 0.27.

`Clc1cccc(Cl)c1` [1,3-dichlorobenzene]: the “Henry solubility constant Hcp” value came to 0.0034.

Turning to `Clc1ccccc1` [chlorobenzene], the “Henry solubility constant Hcp” value worked out at 0.0026.
